“Also recorded” adds a separate entry of the source. Like-named read-outs stand apart in the source and are kept apart here.
How the values were obtained:
T-47D cells [1] = assay: Caspase cascade activation assay (N-(Ac-DEVD)-N'-ethoxycarbonyl-R110 fluorogenic substrate) in T-47D; format: cell-based, Human; conditions: 24 h incubation; for EC50: read-out: Caspase potency EC50; for Caspase activity Ratio: ratio of net RFU of test compound to control
Procedure: (§1) Human breast cancer cell lines T47D and ZR-75-1 were grown according to media component mixtures designated by American Type Culture Collection +10% FCS (Life Technologies, Inc.), in a 5% CO2-95% humidity incubator at 37° C. T-47D and ZR-75-1 cells were maintained at a cell density between 30 and 80% confluency at a cell density of 0.1 to 0.6×10^6 cells/ml. Cells were harvested at 600×g and resuspended at 0.65×10^6 cells/ml into appropriate media +10% FCS . […] An aliquot of 45 μl of cells was added to a well of a 96-well microtiter plate containing 5 μl of a 10% DMSO in RPMI-1640 media solution without test compound as the control sample. The samples were mixed by agitation and then incubated at 37° C. for 24 h in a 5% CO2-95% humidity incubator. After incubation, the samples were removed from the incubator and 50 μl of a solution containing 20 μM of N-(Ac-DEVD)-N′-ethoxycarbonyl-R110 (SEQ ID NO: 1) fluorogenic substrate (Cytovia, Inc.; WO99/18856), 20% sucrose (Sigma), 20 mM DTT (Sigma), 200 mM NaCl (Sigma), 40 mM Na PIPES buffer pH 7.2, and 500 μg/ml lysolecithin (Calbiochem) was added. The samples were mixed by agitation and incubated at room temperature. Using a fluorescent plate reader (Model 1420 Wallac Instruments), an initial reading (T=0) was made approximately 1-2 min after addition of the substrate solution, employing excitation at 485 nm and emission at 530 nm, to determine the background fluorescence of the control sample. After the 3 h incubation, the samples were read for fluorescence as above (T=3 h).
(§2) The Relative Fluorescence Unit values (RFU) were used to calculate the sample readings as follows: RFU(T=3h)−Control RFU (T=0)=Net RFU(T=3h)
(§3) The EC50 (nM) was determined by a sigmoidal dose-response calculation (Prism 2.0, GraphPad Software Inc.).

ZR-75-1 cells [2] = assay: Caspase cascade activation assay (N-(Ac-DEVD)-N'-ethoxycarbonyl-R110 fluorogenic substrate) in ZR-75-1; format: cell-based, Human; conditions: 24 h incubation; for EC50: read-out: Caspase potency EC50; for Caspase activity Ratio: ratio of net RFU of test compound to control
Procedure: as §1, §2, §3

T-47D cells [3] = assay: Inhibition of cell proliferation (GI50), CellTiter 96 AQUEOUS One, T-47D; format: cell-based; conditions: Homo sapiens, T47D, 48 h
Procedure: (§4) T-47D and ZR-75-1 cells were grown and harvested as in Example 148. An aliquot of 90 μl of cells ([…] cells/ml) was added to a well of a 96-well microtiter plate containing 10 μl of a 10% DMSO in RPMI-1640 media solution containing 1 nM to 100 μM of 2-amino-3-cyano-7-dimethylamino-4-(3-methoxy-4,5-methylenedioxyphenyl)-4H-chromene (Example 19) or other test compound (0.1 nM to 10 μM final). An aliquot of 90 μl of cells was added to a well of a 96-well microtiter plate containing 10 μl of a 10% DMSO in RPMI-1640 media solution without compound as the control sample for maximal cell proliferation (Amax). The samples were mixed by agitation and then incubated at 37° C. for 48 h in a 5% CO2-95% humidity incubator. […] Using an absorbance plate reader (Model 1420 Wallac Instruments), an initial reading (T=0) was made approximately 1-2 min after addition of the solution, employing absorbance at 490 nm. This determines the possible background absorbance of the test compounds. No absorbance for 2-amino-3-cyano-7-dimethylamino-4-(3-methoxy-4,5-methylenedioxyphenyl)-4H-chromene or its analogs was found at 490 nm. […]
(§5) The samples were mixed by agitation and then incubated at 37° C. for 0.5 h in a 5% CO2-95% humidity incubator. […] Absorbance was read as above, (AT=0) defining absorbance for initial cell number used as baseline in GI50 determinations.

ZR-75-1 cells [4] = assay: Inhibition of cell proliferation (GI50), CellTiter 96 AQUEOUS One, ZR-75-1; format: cell-based; conditions: Homo sapiens, ZR-75-1, 48 h
Procedure: as §4, §5

Jurkat cells [5] = assay: Nuclear fragmentation in Jurkat cells (Syto16 staining); format: cell-based; conditions: 100 nM or higher, 24 h
Procedure: The ability of 2-amino-3-cyano-7-dimethylamino-4-(3-methoxy-4,5-methylenedioxyphenyl)-4H-chromene to induce nuclear fragmentation was tested by treatment of Jurkat cells with the test compound followed by staining of the nucleus with Syto16, a fluorescent DNA dye. The nuclei of Jurkat cells treated with DMSO vehicle are round with dispersed chromatin that is moderately stained with Syto16 (FIG. 1A).

[6] = test system: poly(ADP)ribose polymerase (PARP) cleavage in Jurkat cells; assay: PARP cleavage in Jurkat cells (western blot); format: cell-based
Procedure: A wide range of natural substrates are cleaved by the caspases during apoptosis. One of these is poly(ADP)ribose polymerase (PARP), an enzyme important in genome surveillance. The ability of 2-amino-3-cyano-7-dimethylamino-4-(3-methoxy-4,5-methylenedioxyphenyl)-4H-chromene to induce PARP cleavage was tested by treating Jurkat cells with the compound at a concentration of 2.5 μM for 5, 15 and 30 h. Control cultures were treated with DMSO vehicle or staurosporine, a known apoptosis inducer.

Jurkat cells [7] = assay: Mitotic arrest in Jurkat cells (mitotic figures, Syto 16); format: cell-based; conditions: 6 h
Procedure: Jurkat cells were incubated with a range of concentrations of 2-amino-3-cyano-7-dimethylamino-4-(3-methoxy-4,5-methylenedioxyphenyl)-4H-chromene (0.02 μM to 5 μM) for 6 h under normal growth conditions; control cultures were treated with DMSO vehicle. The cells were then treated for 20 min. with 800 nM Syto 16. Cytospin preparations were then prepared and the samples were viewed by fluorescent microscopy using a fluorescein filter set. For each concentration of test compound, the number of mitotic figures were counted and expressed as a percentage of the total number of cells. Three fields from each condition were evaluated and the mean and SEM were calculated and plotted as a function of drug concentration (FIG. 3).

Jurkat T leukemia cells = assay: Cell cycle arrest by flow cytometry (propidium iodide), Jurkat; format: cell-based; conditions: 1 μM, 18 h
Procedure: (§6) T47D, ZR-75-1 breast cancer cell lines and PC-3, an androgen-independent prostate cancer cell line were maintained and harvested as described in Example 148. Jurkat T leukemia cells were grown in RPMI 1640 media (Life Technologies, Inc.) +10% FCS (Sigma Chemical Company) in a 5% CO2-95% humidity incubator at 37° C., and maintained at a cell density between 4 and 8×10^5 cells/ml. 1×10^6 cells were induced with 1 μM of 2-amino-3-cyano-7-dimethylamino-4-(3-methoxy-4,5-methylenedioxyphenyl)-4H-chromene or 2-amino-3-cyano-7-dimethylamino-4-(3,4-methylenedioxyphenyl)-4H-chromene for 18 h at 37° C. As a control, cells were also incubated with DMSO. Cells were harvested at 1200 rpm and washed twice with 5 mM EDTA/PBS. Cells were then resuspended in 300 μl EDTA/PBS and […] of 100% ethanol, vortexed and incubated at room temperature for 1 h. Samples were spun down at 12000 rpm for 5 min and the supernatant was removed. A solution containing 100 μg/ml of propidium iodide and 1 mg/ml of RNAse A (fresh) was added to the samples and incubated for 1 h at room temperature. Samples were then transferred to 12×75 mm polystyrene tubes and analysed on a flow cytometer. All flow cytometry analyses were performed on FACScalibur (Becton Dickinson) using Cell Quest analysis software.

T47D cells = assay: Cell cycle arrest by flow cytometry (propidium iodide), T47D; format: cell-based, Human; conditions: 1 μM, 18 h
Procedure: as §6

PC-3 cells = assay: Cell cycle arrest by flow cytometry (propidium iodide), PC-3; format: cell-based; conditions: 1 μM, 18 h
Procedure: as §6

[8] = Homo sapiens, T47D, 0.016 to 1 μM final
[9] = Homo sapiens, 0.016 to 1 μM final

Compound	EC50 (T-47D cells [1]; [8])	EC50 (ZR-75-1 cells [2]; [9])	Caspase activity Ratio (T-47D cells [1])	Caspase activity Ratio (ZR-75-1 cells [2])	other results
COc1cc(C2C(C#N)=C(N)Oc3cc4c(cc32)OCO4)cc2c1OCO2 (centres unmarked) [Example 14, 2-Amino-3-cyano-4-(3-methoxy-4,5-methylenedioxyphenyl)-6,7-methylenedioxy-4H-chromene]	172 nM	96 nM	5.5	9.0	
COc1cc(Br)c(C2C3=CC=C4N=C(C)C=C4C3OC(N)=C2C#N)cc1OC (centres unmarked) [Example 96, 2-Amino-3-cyano-4-(2-bromo-4,5-dimethoxyphenyl)-8-methyl-4H-indolo[4,5-b]pyran]			Inactive	Inactive	Caspase potency EC50 (nM) (T-47D cells [1]; 0.016 to 1 μM final): Inactive; Caspase potency EC50 (nM) (ZR-75-1 cells [2]; 0.016 to 1 μM final): Inactive
Cc1ccc(C2C(C#N)=C(N)Oc3cc(N(C)C)ccc32)cc1[N+](=O)[O-] (centres unmarked) [Example 4, 2-Amino-3-cyano-7-dimethylamino-4-(4-methyl-3-nitropheyl)-4H-chromene]			6.0	6.6	EC50 (T-47D cells [1]; 0.016 to 1 μM final): 200 nM; EC50 (ZR-75-1 cells [2]; 0.016 to 1 μM final): 150 nM
CN(C)c1ccc2c(c1)OC(N)=C(C#N)C2c1ccc2c(c1)OCO2 (centres unmarked) [Example 1, 2-Amino-3-cyano-7-dimethylamino-4-(3,4-methylenedioxyphenyl)-4H-chromene]		60 nM		4.2	GI50 (T-47D cells [3]): 100 nM; GI50 (ZR-75-1 cells [4]): 10000 nM; Cell cycle arrest (T47D cells): progression and arrest in G2/M; also recorded: induce cell cycle arrest; Cell cycle arrest (PC-3 cells; listed as 2-amino-3-cyano-7-dimethylamino-4-(3,4-methylenedioxyphenyl)-4-H-chromene): progression and arrest in G2/M; Cell cycle arrest (PC-3 cells; listed as 2-amino-3-cyano-7-dimethylamino-4-(3,4-methylenedioxyphenyl)-4H-chromene): induce cell cycle arrest
COc1cc(Br)c(C2C3=CC=C4N=CC=C4C3OC(N)=C2C#N)cc1OC (centres unmarked) [Example 95, 2-Amino-3-cyano-4-(2-bromo-4,5-dimethoxyphenyl)-4H-indolo[4,5-b]pyran]	720 nM	364 nM	3.8	5.1	

The next lines start with results.

EC50 (T-47D cells [1]; [8])	EC50 (ZR-75-1 cells [2]; [9])	Compound	Caspase activity Ratio (T-47D cells [1])	Caspase activity Ratio (ZR-75-1 cells [2])	other results
6 nM	7 nM	COc1cc(C2C3=CC=C4N=CC=C4C3OC(N)=C2C#N)cc(Br)c1OC (centres unmarked) [Example 97, 2-Amino-3-cyano-4-(3-bromo-4,5-dimethoxyphenyl)-4H-indolo[4,5-b]pyran]	2.7	5.0	
87 nM	38 nM	COc1cc(C2C(C#N)=C(N)Oc3cc(N(C)C)ccc32)cc2c1OCO2 (centres unmarked) [Example 19, 2-Amino-3-cyano-7-dimethylamino-4-(3-methoxy-4,5-methylenedioxyphenyl)-4H-chromene]	5.5	6.3	GI50 (T-47D cells [3]): 3 nM; GI50 (ZR-75-1 cells [4]): 500 nM; Nuclear fragmentation (Jurkat cells [5]): shrunken and fragmented nuclei; PARP cleavage at 30 h [6]: virtually all of PARP was converted into its cleaved form; Percent mitotic arrest versus drug concentration (Jurkat cells [7]; up to 1.0 μM (FIG. 3)): increasing percent mitotic arrest with increasing drug concentration; EC50 (Jurkat cells [7]; Homo sapiens, 0.02 μM to 5 μM): ~125 nM; Cell cycle arrest (Jurkat T leukemia cells): progression and arrest in S/G2/M; also recorded: induces cell cycle arrest; Cell cycle arrest (T47D cells): progression and arrest in G2/M; also recorded: induce cell cycle arrest; Cell cycle arrest (PC-3 cells): progression and arrest in G2/M; also recorded: induce cell cycle arrest
36 nM	23 nM	COc1cc(C2C3=CC=C4N=CC=C4C3OC(N)=C2C#N)cc(OC)c1OC (centres unmarked) [Example 99, 2-Amino-3-cyano-4-(3,4,5-trimethoxyphenyl)-4H-indolo[4,5-b]pyran]	2.8	4.3	
45 nM	22 nM	CN(C)c1ccc2c(c1)OC(N)=C(C#N)C2c1cccc([N+](=O)[O-])c1 (centres unmarked) [Example 38, 2-Amino-3-cyano-7-dimethylamino-4-(3-nitrophenyl)-4H-chromene]	12.7	6.5	
49 nM	25 nM	COc1cc(C2C3=CC=C4N=CC=C4C3OC(N)=C2C#N)cc2c1OCO2 (centres unmarked) [Example 94, 2-Amino-3-cyano-4-(3-methoxy-4,5-methylenedioxyphenyl)-4H-indolo[4,5-b]pyran]	6.5	7.8	
17 nM	12 nM	COc1cc(C2C(C#N)=C(N)Oc3c2ccc2ccccc32)cc(Br)c1OC (centres unmarked) [Example 103, 2-Amino-3-cyano-4-(3-bromo-4,5-dimethoxyphenyl)-4H-naphtho[1,2-b]pyran]	2.2	4.2	

Reference: patent US6906203B1, “Substituted 4H-chromene and analogs as activators of caspases and inducers of apoptosis and the use thereof” (Cytovia, Inc., priority 1999, dated 2005)
